According to patent US7125559B2, “Cosmetic or dermatological composition comprising a combination of an elastase inhibitor of the N-acylaminoamide family and at least one myorelaxing agent” (L'Oreal, priority 2001, dated 2006):

How the values were obtained:
[1] = target: T1, human leukocyte elastase (HLE) (Homo sapiens, UniProt P08246); assay: anti-elastase activity in vitro against human leukocyte elastase (HLE), substrate Me-OSAAPV-p-NA, spectrophotometry; assay type: biochemical
T1 sequence (P08246 30-267): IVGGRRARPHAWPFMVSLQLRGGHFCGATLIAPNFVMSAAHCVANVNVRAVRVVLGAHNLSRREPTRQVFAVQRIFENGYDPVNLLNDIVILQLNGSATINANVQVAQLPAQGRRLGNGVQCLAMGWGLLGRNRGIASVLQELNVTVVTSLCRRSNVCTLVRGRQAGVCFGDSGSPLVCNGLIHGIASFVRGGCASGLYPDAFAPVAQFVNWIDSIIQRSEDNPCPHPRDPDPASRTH
Experimental: The anti-elastase activity of compounds according to the invention was determined in vitro against human leukocyte elastase (HLE)
(§1) The test was performed in the following manner:
A substrate Me-OSAAPV-p-NA (methyl-O-succinate alanine alanine proline valine-p-nitroanilide) to which is added the HLE (40 milliunits per ml) and 0.1% of the test compound is incubated at 37° C. for 60 minutes.
The % of inhibition of the elastase activity tested is then determined by spectrophotometry.
In the same manner the % of inhibition of the control elastase activity was determined for the compound A at different concentrations

[2] = tested on: surviving human skins treated with human leukocyte elastase (HLE); assay: ex vivo activity on fresh sections of surviving human skins treated with HLE, morphometry of elastin fibres (Example 4); conditions: HLE 10 μg/ml + 0.1% test compound, 2 hours at 20° C.
Experimental: (§2) The ex vivo activity of the compound of Example 2 was evaluated on surviving human skins treated with human leukocyte elastase (HLE).
(§3) The test is performed in the following manner:
Fresh sections of human skins derived from 2 different donors are treated for 2 hours at 20° C. with 20 μl of buffer solution (pH 7.4) containing optionally 10 μg/ml of HLE and optionally 0.1% of the test compound, optionally previously dissolved in ethanol.
The elastin fibres are stained blue with (+) catechol and quantified morphometrically by computer-assisted image analysis. The percentage of mean dermal surface occupied by the elastin fibres is thus evaluated

[3] = tested on: surviving human skins treated with human leukocyte elastase (HLE); assay: ex vivo activity on human skin fragments kept in survival 10 days with HLE, morphometry of elastin fibres (Example 5); conditions: three donors, mean; HLE 0.5 μg/ml + 5 μl compound at 0.2% in ethanol every two days, 10 days at 37° C.; HLE alone 5.1%, untreated 7.4%
Experimental: as §2, §1
(§4) Fragments of normal human skin derived from three different donors are deposited in inserts placed in culture wells. Culture medium supplemented with antibiotics is added to the bottom of the wells. Passage by slow diffusion occurs between the two compartments through the intermediary of a porous membrane (pore size: 12 μm).
(§5) The culture medium is renewed every three days.
Optionally 0.5 μg of HLE per ml of culture medium is added to the skin fragments.
5 μl of test compound previously dissolved at 0.2% by weight in ethanol are also added every two days.
The skins are maintained in survival for 10 days at 37° C.,
(§6) The elastin fibres are stained blue with (+) catechol and quantified morphometrically by computer-assisted image analysis. The mean percentage dermal surface area occupied by the elastin fibres was thus evaluated.

[4] = tested on: surviving human skins irradiated by UVA; assay: activity on surviving human skins irradiated by UVA (8 J/cm2), morphometry of elastin fibres and collagen (Example 6); conditions: UVA 8 J/cm2 + 5 μl compound at 0.2% in ethanol every two days, 7 days at 37° C.
Experimental: The activity of the compound of Example 2 was evaluated on irradiated surviving human skins irradiated by UVA (8 J/cm2).
as §3
as §4, with “four” for “three”
as §5
Every two days 5 μl of the test compound previously dissolved at 0.2% in ethanol are added to the skin fragments.
The skins are maintained in survival for 7 days at 37° C.
The skins are irradiated once only at 8 J/cm2 (Vilbert-Lourmat RMX-3W lamp).
as §6

| Compound | inhibition of the elastase activity (in words) ([1]; even at low concentration) | % surface occupied by elastin fibres ([2]; Skin 1, HLE alone 4.85%, untreated 12.7%) [%] | % surface occupied by elastin fibres ([2]; Skin 2, HLE alone 6.85%, untreated 15.25%) [%] | % surface occupied by elastin fibres [3] [%] | Morphometric analysis of elastin fibres (superficial dermis) ([4]; UVA alone 3.9%, untreated 6.75%) [%] | Morphometric analysis of collagen (superficial dermis) ([4]; UVA alone 81%, untreated 87%) [%] | % inhibition of elastase activity tested ([1]; compound concentration 0.1%, HLE 40 milliunits per ml, 37° C., 60 minutes) [%] |
| --- | --- | --- | --- | --- | --- | --- | --- |
| CC(=O)N(c1cccc(C(F)(F)F)c1)C(C(=O)NCC(=O)O)C(C)C (stereo not shown) [Compound A, {2-[acetyl-(3-trifluoromethyl-phenyl)-amino]-3-methyl-butyrylamino}acetic acid] | strong inhibition | 13.95 | 11.85 | 7.1 | 6.8 | 92 | – |
| CCOC(=O)CNC(=O)C(C(C)C)N(Cc1ccccc1)C(=O)CP(=O)(OCC)OCC (stereo not shown) [Compound B, (2-{benzyl-[(diethoxy-phosphoryl)-acetyl]-amino}-3-methyl-butyrylamino) ethyl acetate] | – | – | – | – | – | – | 17 |
